Data: patent publication US8629143B2, “Potassium channel modulators” (AbbVie Inc., priority 2009, dated 2014)

Molecular target: T1, KCNQ 2/3 channels (HEK293 cells stably expressing human KCNQ2 and KCNQ3 subunits) (Homo sapiens, UniProt O43525+O43526)
T1 construct: expressed in transfected cells; host or cells: HEK293
Assay: KCNQ2/3 channel activation, thallium flux FLIPR assay with BTC-AM dye
Format: cell-based
Settings: for Emax: HEK293, maximum response relative to the response produced by 10 μM retigabine (set at 100%), read-out: Max. %; for EC50: HEK293 cells expressing human KCNQ2 and KCNQ3, thallium flux, FLIPR
Procedure: The following example describes the assay that can be used to identify compounds that activate KCNQ 2/3 channels.
HEK293 cells stably expressing human KCNQ2 and KCNQ3 subunits were seeded in 96-well, black-walled, clear-bottomed, poly-D-lysine coated plates (BD Biosciences, Bedford, Mass.) at a density of 1×10^5 cells per well 24 hours before the assay. On the assay day, BTC-AM dye (Invitrogen, Carlsbad, Calif.) was loaded into the cells by replacing the cell culture medium with 55 μL/well of 3 μg/mL dye in DPBS. Dye loading was allowed to proceed for 2 hours at room temperature and then cells were washed twice with 50 μL/well of assay buffer (in mM: 10 HEPES pH 7.3, 5 glucose, 140 Na-gluconate, 2.5 K-gluconate, 3.6 Ca-gluconate, 2 MgSO4, 0.1 Ouabain) to remove unloaded dye. Cells were incubated in 50 μL of assay buffer before loading onto a FLIPR system (Molecular Devices, Sunnyvale, Calif.). Various concentrations of compounds to be assayed were added to the cells in 50 μL of assay buffer and incubated for 4 minutes. The fluorescence signal was initiated by adding 100 μL of assay buffer containing 6 mM TlNO3 and 10 mM K2SO4. Fluors were excited using the 488-nm line of an argon laser and emission was filtered using a 540±30 nm bandpass filter. Fluorescent signals were recorded for 3 minutes. Sums of the responses over basal responses were plotted versus concentrations of test compounds to obtain an EC50 value. The maximum response for each test compound was determined relative to the response produced by 10 μM retigabine. The maximum response of retigabine at 10 μM was set at 100%.

For `O=C(CC12CC3CC(CC(C3)C1)C2)Nn1nc(-c2ccccc2)c2cc(F)ccc2c1=O` [Example 37, 2-(1-adamantyl)-N-(6-fluoro-1-oxo-4-phenylphthalazin-2(1H)-yl)acetamide], which Emax is on record?
Its Emax is 179%.

And the EC50?
The EC50 was less than 100 nM.

How did the Emax turn out when `Cc1nn(NC(=O)Cc2cc(F)cc(F)c2)c(=O)c2ccccc12` [Example 38, 2-(3,5-difluorophenyl)-N-(4-methyl-1-oxophthalazin-2(1H)-yl)acetamide] was run?
Its Emax is 126%.

And the EC50?
Its EC50 is greater than 10000 nM.

How did the Emax turn out when `O=C(CC1(c2ccc(Cl)cc2)CC1)Nn1nc(C(F)(F)F)c2ccccc2c1=O` [Example 39, 2-[1-(4-chlorophenyl)cyclopropyl]-N-[1-oxo-4-(trifluoromethyl)phthalazin-2(1H)-yl]acetamide] was run?
Its Emax is 11%.

And the EC50?
The EC50 was greater than 10000 nM.

Which Emax does the source give for `O=C(CC1(c2ccc(Cl)cc2)CCC1)Nn1nc(C(F)(F)F)c2ccccc2c1=O` [Example 40, 2-[1-(4-chlorophenyl)cyclobutyl]-N-[1-oxo-4-(trifluoromethyl)phthalazin-2(1H)-yl]acetamide] here?
Its Emax is 7%.

And the EC50?
Its EC50 is greater than 10000 nM.

What does the source list for `CC(C)(CC(=O)Nn1nc(C(F)(F)F)c2ccccc2c1=O)c1ccc(Cl)cc1` [Example 42, 3-(4-chlorophenyl)-3-methyl-N-[1-oxo-4-(trifluoromethyl)phthalazin-2(1H)-yl]butanamide]?
Emax: 103%; EC50: 100 to 500 nM

How did the Emax turn out when `O=C(CC1CCCC1)Nn1nc(C(F)(F)F)c2ccccc2c1=O` [Example 43, 2-cyclopentyl-N-[1-oxo-4-(trifluoromethyl)phthalazin-2(1H)-yl]acetamide] was run?
The Emax was 112%.

What about the EC50 of the same compound?
Its EC50 is 100 to 500 nM.

Which results are given for `O=C(Nn1nc(C(F)(F)F)c2ccccc2c1=O)C(F)(F)c1ccccc1` [Example 44, 2,2-difluoro-N-[1-oxo-4-(trifluoromethyl)phthalazin-2(1H)-yl]-2-phenylacetamide]?
Emax: 35%; EC50: > 10000 nM

For `O=C(CC1CCC1)Nn1nc(C(F)(F)F)c2ccccc2c1=O` [Example 45, 2-cyclobutyl-N-[1-oxo-4-(trifluoromethyl)phthalazin-2(1H)-yl]acetamide], which Emax is on record?
Its Emax is 84%.

What about the EC50 of the same compound?
Its EC50 is 1000 to 10000 nM.

With `CN(C)c1ccc(CC(=O)Nn2nc(C(F)(F)F)c3ccccc3c2=O)cc1` [Example 47, 2-[4-(dimethylamino)phenyl]-N-[1-oxo-4-(trifluoromethyl)phthalazin-2(1H)-yl]acetamide] as the compound, how does the Emax read?
The Emax was 7%.

What about the EC50 of the same compound?
Its EC50 is greater than 10000 nM.

With `CC(C)(C)CC(=O)Nn1nc(C(F)(F)F)c2ccccc2c1=O` [Example 48, 3,3-dimethyl-N-[1-oxo-4-(trifluoromethyl)phthalazin-2(1H)-yl]butanamide] as the compound, how does the Emax read?
The Emax was 77%.

And the EC50?
The EC50 was 1000 to 10000 nM.

What does the source list for `CS(=O)(=O)c1ccc(CC(=O)Nn2nc(C(F)(F)F)c3ccccc3c2=O)cc1` [Example 49, 2-[4-(methylsulfonyl)phenyl]-N-[1-oxo-4-(trifluoromethyl)phthalazin-2(1H)-yl]acetamide]?
Emax: 3%; EC50: > 10000 nM

Which Emax does the source give for `O=C(CCc1ccccc1)Nn1nc(C(F)(F)F)c2ccccc2c1=O` [Example 50, N-[1-oxo-4-(trifluoromethyl)phthalazin-2(1H)-yl]-3-phenylpropanamide] here?
Its Emax is 116%.

What about the EC50 of the same compound?
The EC50 was greater than 10000 nM.

For `O=C(CC1(c2ccccc2)CC1)Nn1nc(C(F)(F)F)c2ccccc2c1=O` [Example 51, N-[1-oxo-4-(trifluoromethyl)phthalazin-2(1H)-yl]-2-(1-phenylcyclopropyl)acetamide], which Emax is on record?
Its Emax is -2%.

What about the EC50 of the same compound?
The EC50 was greater than 10000 nM.

What does the source list for `CC(C)(CC(=O)Nn1nc(C(F)(F)F)c2ccccc2c1=O)c1ccccc1` [Example 52, 3-methyl-N-[1-oxo-4-(trifluoromethyl)phthalazin-2(1H)-yl]-3-phenylbutanamide]?
Emax: 116%; EC50: 100 to 500 nM

How did the Emax turn out when `O=C(Cc1ccsc1)Nn1nc(C(F)(F)F)c2ccccc2c1=O` [Example 53, N-[1-oxo-4-(trifluoromethyl)phthalazin-2(1H)-yl]-2-(3-thienyl)acetamide] was run?
Its Emax is 61%.

What about the EC50 of the same compound?
The EC50 was 1000 to 10000 nM.

What does the source list for `O=C(Cc1cccs1)Nn1nc(C(F)(F)F)c2ccccc2c1=O` [Example 54, N-[1-oxo-4-(trifluoromethyl)phthalazin-2(1H)-yl]-2-(2-thienyl)acetamide]?
Emax: 84%; EC50: 1000 to 10000 nM

How did the Emax turn out when `O=C(Cc1ccc(Cl)s1)Nn1nc(C(F)(F)F)c2ccccc2c1=O` [Example 55, 2-(5-chloro-2-thienyl)-N-[1-oxo-4-(trifluoromethyl)phthalazin-2(1H)-yl]acetamide] was run?
Its Emax is 72%.

What about the EC50 of the same compound?
Its EC50 is 500 to 1000 nM.

`Cc1ccc(CC(=O)Nn2nc(C(F)(F)F)c3ccccc3c2=O)s1` [Example 56, 2-(5-methyl-2-thienyl)-N-[1-oxo-4-(trifluoromethyl)phthalazin-2(1H)-yl]acetamide] was tested. Which Emax did it give?
Its Emax is 51%.

What about the EC50 of the same compound?
Its EC50 is 1000 to 10000 nM.

With `O=C(Cc1ccccc1)Nn1nc(C(F)(F)F)c2ccccc2c1=O` [Example 57, N-[1-oxo-4-(trifluoromethyl)phthalazin-2(1H)-yl]-2-phenylacetamide] as the compound, how does the Emax read?
Its Emax is 85%.

What about the EC50 of the same compound?
Its EC50 is 1000 to 10000 nM.

`O=C(Cc1ccc(Cl)c(F)c1)Nn1nc(C(F)(F)F)c2ccccc2c1=O` [Example 59, 2-(4-chloro-3-fluorophenyl)-N-[1-oxo-4-(trifluoromethyl)phthalazin-2(1H)-yl]acetamide] was tested. Which Emax did it give?
The Emax was 90%.

And the EC50?
The EC50 was 1000 to 10000 nM.

For `CC(C)c1nn(NC(=O)CC23CC4CC(CC(F)(C4)C2)C3)c(=O)c2ccccc12` [Example 60, 2-(3-fluoroadamantan-1-yl)-N-(4-isopropyl-1-oxophthalazin-2(1H)-yl)acetamide], which Emax is on record?
Its Emax is 214%.

What about the EC50 of the same compound?
Its EC50 is less than 100 nM.

What does the source list for `CC(C)c1nn(NC(=O)CC23CC4CC(CC(O)(C4)C2)C3)c(=O)c2ccccc12` [Example 61, 2-(3-hydroxyadamantan-1-yl)-N-(4-isopropyl-1-oxophthalazin-2(1H)-yl)acetamide]?
Emax: 26%; EC50: > 10000 nM

`CC(C)(C)c1nn(NC(=O)CC2CCCC2)c(=O)c2ccccc12` [Example 62, N-(4-tert-butyl-1-oxophthalazin-2(1H)-yl)-2-cyclopentylacetamide] was tested. Which Emax did it give?
Its Emax is 149%.

And the EC50?
The EC50 was less than 100 nM.

Which Emax does the source give for `CC(C)(C)c1nn(NC(=O)CC(C)(C)c2ccccc2)c(=O)c2ccccc12` [Example 64, N-(4-tert-butyl-1-oxophthalazin-2(1H)-yl)-3-methyl-3-phenylbutanamide] here?
The Emax was 157%.

And the EC50?
Its EC50 is less than 100 nM.

Which results are given for `CC(C)(C)c1nn(NC(=O)Cc2ccc(Cl)cc2)c(=O)c2ccccc12` [Example 65, N-(4-tert-butyl-1-oxophthalazin-2(1H)-yl)-2-(4-chlorophenyl)acetamide]?
Emax: 151%; EC50: 100 to 500 nM

What does the source list for `O=C(C[C@@H]1C[C@@H]2CC[C@H]1C2)Nn1nc(C2CCC2)c2ccccc2c1=O` [Example 66, 2-[(1S,2S,4R)-bicyclo[2.2.1]hept-2-yl]-N-(4-cyclobutyl-1-oxophthalazin-2(1H)-yl)acetamide]?
Emax: 148%; EC50: < 100 nM

How did the Emax turn out when `O=C(C[C@@H]1C[C@@H]2C=C[C@H]1C2)Nn1nc(C2CCC2)c2ccccc2c1=O` [Example 67, 2-[(1S,2S,4S)-bicyclo[2.2.1]hept-5-en-2-yl]-N-(4-cyclobutyl-1-oxophthalazin-2(1H)-yl)acetamide] was run?
The Emax was 166%.

And the EC50?
The EC50 was less than 100 nM.

Which results are given for `O=C(Cc1cc(F)cc(F)c1)Nn1nc(C2CCC2)c2ccccc2c1=O` [Example 69, N-(4-cyclobutyl-1-oxophthalazin-2(1H)-yl)-2-(3,5-difluorophenyl)acetamide]?
Emax: 138%; EC50: < 100 nM

For `O=C(Cc1ccc(Cl)cc1)Nn1nc(C2CCC2)c2ccccc2c1=O` [Example 70, 2-(4-chlorophenyl)-N-(4-cyclobutyl-1-oxophthalazin-2(1H)-yl)acetamide], which Emax is on record?
Its Emax is 124%.

What about the EC50 of the same compound?
Its EC50 is 100 to 500 nM.

`O=C(Cc1ccc(Cl)cc1)Nn1nc(C2CCCC2)c2ccccc2c1=O` [Example 72, 2-(4-chlorophenyl)-N-(4-cyclopentyl-1-oxophthalazin-2(1H)-yl)acetamide] was tested. Which Emax did it give?
The Emax was 130%.

What about the EC50 of the same compound?
Its EC50 is less than 100 nM.

What does the source list for `O=C(Cc1cc(F)cc(F)c1)Nn1nc(C2CCCC2)c2ccccc2c1=O` [Example 73, N-(4-cyclopentyl-1-oxophthalazin-2(1H)-yl)-2-(3,5-difluorophenyl)acetamide]?
Emax: 142%; EC50: < 100 nM

For `O=C(CC12CC3CC(CC(C3)C1)C2)Nn1nc(C2CCCCC2)c2ccccc2c1=O` [Example 75, 2-(adamantan-1-yl)-N-(4-cyclohexyl-1-oxophthalazin-2(1H)-yl)acetamide], which Emax is on record?
The Emax was 243%.

What about the EC50 of the same compound?
Its EC50 is less than 100 nM.

Which results are given for `O=C(Cc1ccc(Cl)cc1)Nn1nc(C2CCCCC2)c2ccccc2c1=O` [Example 76, 2-(4-chlorophenyl)-N-(4-cyclohexyl-1-oxophthalazin-2(1H)-yl)acetamide]?
Emax: 157%; EC50: 100 to 500 nM

What does the source list for `O=C(Cc1cc(F)cc(F)c1)Nn1nc(C2CCCCC2)c2ccccc2c1=O` [Example 77, N-(4-cyclohexyl-1-oxophthalazin-2(1H)-yl)-2-(3,5-difluorophenyl)acetamide]?
Emax: 145%; EC50: < 100 nM
